Experiments:
[1] = test system: primed human PSCs; test: Conversion of primed human PSCs to ICLCs (ICM marker expression, colony morphology); format: cell-based
Procedure: One day before initiation of conversion, primed human PSCs were washed with PBS once and dissociated into single cells and plated at a density of 1,000 to 1,500 cells/cm^2 on feeder in mTeSR1 or E8 medium supplemented with 10 μM Y27632. Twenty-four hours later, culture medium was switched to 4CL medium 1. The culture medium was refreshed with the same medium every 24 hours. Colonies became round and domed-shape in 24 to 48 hours. Cells were passaged every 3 to 4 days. For passaging, cells were dissociated into single cells using TrypLE: 0.5 mM EDTA (1:1) and plated at a density of 1,000 to 1,500 cells/cm^2 on feeder (feeders were seeded on Geltrex™/Matrigel™ pre-treated plate) (FIG. 1). The ICLCs induction and maintenance can be conducted under hypoxic condition (37° C., 5% CO2, 5% O2), or normoxic condition (37° C., 5% CO2, 21% O2) (FIG. 34), preferably hypoxia condition.
Using the same procedures of example 1, except plating cells on 1% (v/v) Geltrex™ in DMEM-F12 (cat #) coated plates instead of on feeder cells.
Primed human PSCs were cultured following the same procedures of example 1. One day before initiation of the conversion, primed human PSCs were dissociated into single cells and plated 60,000 cells/well in Aggrewell™800 plates using mTeSR1 or E8 medium supplemented with 10 μM Y27632. […]

[2] = test system: primed human PSCs or ICLCs; test: Conversion of primed human PSCs or ICLCs to 8CLCs (8C marker expression); format: cell-based; settings: CHIR99021 included in e4CL, or IWR1 withdrawn from e4CL
Procedure: Primed human PSCs were cultured following the same procedures of example 1. One day before initiation of the conversion, primed human PSCs were dissociated into single cells and plated at 2,000 to 3,000 cells/cm^2 on feeder using mTeSR1 or E8 medium supplemented with 10 μM Y27632. Twenty-four hours later, culture medium was changed into e4CL medium, cells were cultured in incubator at 37° C., 5% CO2, hypoxic or normoxic condition. Medium was refreshed daily. Cells were passaged every 3 to 4 days. For passaging, cells were dissociated into single cells using TrypLE: 0.5 mM EDTA (1:1), plated at 2,000 to 3,000 cells/cm^2 on feeder coated plates. Generally, cells were converted to 8CLCs in approximately one week. One day before initiation of the conversion, ICLCs were dissociated into single cells and plated at 2,000 to 3,000 cells/cm^2 on feeders using 4CL medium. Twenty-four hours later, culture medium is changed into e4CL medium. Medium was refreshed daily. Cells were converted to 8CLCs in 3 to 5 days without passaging. ICLCs were cultured following the same procedures of example 1. One day before initiation of the conversion, ICLCs were dissociated into single cells and resuspended in 4CL medium at a density of 300,000 cells/ml. The cell suspension was added into flasks for suspension culture (Greiner Bio-One, 658190). […]

SMILES | ICLC formation ([1]; CHIR99021 included in 4CL, or IWR1 withdrawn from 4CL) | 8CLC formation [2] | expression levels of ICM specific genes such as DNMT3L, STELLA, DPPA5, KLF17 ([1]; final concentration of 40 to 70 μg/ml)
Cc1c[nH]c(-c2cnc(NCCNc3ccc(C#N)cn3)nc2-c2ccc(Cl)cc2Cl)n1 [CHIR99021] | inhibits formation of ICLC | inhibits formation of 8CLC | 
O=C1O[C@H]([C@@H](O)CO)C(O)=C1O [L-ascorbic acid] |  |  | potently increases

Source: patent US20230407249A1, “Media and methods for establishing and maintaining early embryo-like cells” (BGI SHENZHEN GROUP HOLDINGS CO., LIMITED, priority 2020, published 2023)
